Assay results as given in patent publication US9661854B2, “Molecules having pesticidal utility, and intermediates, compositions, and processes, related thereto” (Dow AgroSciences LLC, priority 2015, dated 2017).

Legend:
Assay type in all cases: in vivo
[1] = tested on: Beet Armyworm (Spodoptera exigua, LAPHEG); assay: Bioassay on Beet Armyworm (BAW), 128-well diet tray assay; details: 168 h, 50 μg/cm^2 on artificial diet, second instar larvae, 25° C., five to seven days, average of eight wells, read-out: BAW % Control (or Mortality) rating
Summary of the method: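 Second-instar larvae, one to five per well, fed artificial diet surface-treated with 50 μg/cm^2 test molecule in 90:10 acetone-water, dried before infestation; eight wells per molecule. Held at 25 °C, 14:10 light-dark for five to seven days; percent mortality averaged over wells.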

[2] = tested on: Cabbage Looper (Trichoplusia ni, TRIPNI); assay: Bioassay on Cabbage Looper (CL), 128-well diet tray assay; details: 168 h, 50 μg/cm^2 on artificial diet, second instar larvae, 25° C., five to seven days, average of eight wells, read-out: CL % Control (or Mortality) rating
Summary of the method: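 Second-instar larvae (one to five per well) placed on artificial diet treated with 50 μg/cm^2 test molecule in 90:10 acetone-water, dried; eight wells per molecule. Held at 25° C., 14:10 light-dark, for five to seven days. Percent mortality scored per well and averaged over the eight wells.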

[3] = tested on: Yellow Fever Mosquito (Aedes aegypti, AEDSAE); details: about 1 day-old larvae, master plate 4000 ppm solution diluted, room temperature, scored after 3 days
Description: Example B: Bioassays on Yellow Fever Mosquito (Aedes aegypti, AEDSAE (“YFM”)
Certain molecules disclosed in this document were tested against YFM using procedures described in the following paragraph. In the reporting of the results, the “YFM Rating Table” was used (See Table Section).
Master plates containing 400 μg of a molecule dissolved in 100 μL of dimethyl sulfoxide (DMSO) (equivalent to a 4000 ppm solution) are used. A master plate of assembled molecules contains 15 μL per well. To this plate, 135 μL of a 90:10 water/acetone mixture is added to each well. A robot (Biomek® NXP Laboratory Automation Workstation) is programmed to dispense 15 μL aspirations from the master plate into an empty 96-well shallow plate (“daughter” plate). There are 6 reps (“daughter” plates) created per master. The created “daughter” plates are then immediately infested with YFM larvae.
The day before plates are to be treated, mosquito eggs are placed in Millipore water containing liver powder to begin hatching (4 g into 400 mL). After the “daughter” plates are created using the robot, they are infested with 220 μL of the liver powder/larval mosquito mixture (about 1 day-old larvae). After plates are infested with mosquito larvae, a non-evaporative lid is used to cover the plate to reduce drying. Plates are held at room temperature for 3 days prior to grading. After 3 days, each well is observed and scored based on mortality. The results are indicated in the table entitled “Table ABC: Biological Results” (See Table Section).

SMILES	mortality at 50 µg/cm2 [1]	mortality at 50 µg/cm2 [2]	YFM % Control (or Mortality) rating [3]
Cc1ccc(C(C)C)c(N2C(=O)CS/C2=N\C(=O)Nc2ccc(CC(C)c3ncn(-c4ccc(OC(F)(F)F)cc4)n3)cc2)c1 (stereo not drawn) [F15, (Z)-1-(3-(2-Isopropyl-5-methylphenyl)-4-oxothiazolidin-2-ylidene)-3-(4-(2-(1-(4-(trifluoromethoxy)phenyl)-1H-1,2,4-triazol-3-yl)propyl)phenyl)urea]	50 to 100%	50 to 100%	A (80-100)
CCC(C)Oc1ccc(C)cc1N1C(=O)CS/C1=N\C(=O)Nc1ccc(/C=C/c2ncn(-c3ccc(OC(F)(F)F)cc3)n2)cc1F (stereo not drawn) [F60, 1-((Z)-3-(2-(sec-Butoxy)-5-methylphenyl)-4-oxothiazolidin-2-ylidene)-3-(2-fluoro-4-((E)-2-(1-(4-(trifluoromethoxy)phenyl)-1H-1,2,4-triazol-3-yl)vinyl)phenyl)urea]	50 to 100%	50 to 100%	A (80-100)
Cc1ccc(C(C)C)c(N2C(=O)CS/C2=N\C(=O)Nc2ccc(/C=C/c3ncn(-c4ccc(OC(F)(F)F)cc4)n3)cc2)c1 [F38, 1-((Z)-3-(2-isopropyl-5-methylphenyl)-4-oxothiazolidin-2-ylidene)-3-(4-((E)-2-(1-(4-(trifluoromethoxy)phenyl)-1H-1,2,4-triazol-3-yl)vinyl)phenyl)urea]	50 to 100%	50 to 100%	A (80-100)
CC(C)c1ccccc1N1C(=O)CS/C1=N\C(=O)Nc1ccc(CCc2ncn(-c3ccc(C(F)(F)F)cc3C#N)n2)cc1 [F76, (Z)-1-(4-(2-(1-(2-cyano-4-(trifluoromethyl)phenyl)-1H-1,2,4-triazol-3-yl)ethyl)phenyl)-3-(3-(2-isopropylphenyl)-4-oxothiazolidin-2-ylidene)urea]	50 to 100%	50 to 100%	A (80-100)
Cc1ccc(OC(C)(C)C)c(N2C(=O)CS/C2=N\C(=O)Nc2ccc(CCc3ncn(-c4ccc(OC(F)(F)F)cc4)n3)cc2)c1 [F14, (Z)-1-(3-(2-(tert-Butoxy)-5-methylphenyl)-4-oxothiazolidin-2-ylidene)-3-(4-(2-(1-(4-(trifluoromethoxy)phenyl)-1H-1,2,4-triazol-3-yl)ethyl)phenyl)urea]	50 to 100%	50 to 100%	A (80-100)
CCCc1ccc(C)cc1N1C(=O)CS/C1=N\C(=O)Nc1ccc(CCc2ncn(-c3ccc(OC(F)(F)F)cc3)n2)cc1F [F26, (Z)-1-(2-Fluoro-4-(2-(1-(4-(trifluoromethoxy)phenyl)-1H-1,2,4-triazol-3-yl)ethyl)phenyl)-3-(3-(5-methyl-2-propylphenyl)-4-oxothiazolidin-2-ylidene)urea]	50 to 100%	50 to 100%	A (80-100)
Cc1ccc(C(C)C)c(N2C(=O)CS/C2=N\C(=O)Nc2ccc(CCc3ncn(-c4ccc(OC(F)(F)F)cc4)n3)c(F)c2)c1 [F23, (Z)-1-(3-Fluoro-4-(2-(1-(4-(trifluoromethoxy)phenyl)-1H-1,2,4-triazol-3-yl)ethyl)phenyl)-3-(3-(2-isopropyl-5-methylphenyl)-4-oxothiazolidin-2-ylidene)urea]	50 to 100%	50 to 100%	A (80-100)
Cc1ccc(C2CC2(F)F)c(N2C(=O)CS/C2=N\C(=O)Nc2ccc(CCc3ncn(-c4ccc(OC(F)(F)F)cc4)n3)cc2)c1 (stereo not drawn) [F28, (Z)-1-(3-(2-(2,2-Difluorocyclopropyl)-5-methylphenyl)-4-oxothiazolidin-2-ylidene)-3-(4-(2-(1-(4-(trifluoromethoxy)phenyl)-1H-1,2,4-triazol-3-yl)ethyl)phenyl)urea]	50 to 100%	50 to 100%	
CC(C)c1ccccc1N1C(=O)CS/C1=N\C(=O)Nc1ccc(CCc2ncn(-c3ccc(Br)cc3)n2)cc1 [F77, (Z)-1-(4-(2-(1-(4-Bromophenyl)-1H-1,2,4-triazol-3-yl)ethyl)phenyl)-3-(3-(2-isopropylphenyl)-4-oxothiazolidin-2-ylidene)urea]	50 to 100%	50 to 100%	A (80-100)
Cc1ccc(C(C)C)c(N2C(=O)CS/C2=N\C(=O)Nc2ccc(CCc3ncn(-c4ccc(OC(F)(F)F)cc4)n3)cc2)c1 [F1, (Z)-1-(3-(2-isopropyl-5-methylphenyl)-4-oxothiazolidin-2-ylidene)-3-(4-(2-(1-(4-(trifluoromethoxy)phenyl)-1H-1,2,4-triazol-3-yl)ethyl)phenyl)urea]	50 to 100%	50 to 100%	
Cc1ccc(C(F)(F)F)c(N2C(=O)CS/C2=N\C(=O)Nc2ccc(/C=C/c3ncn(-c4ccc(OC(F)(F)F)cc4)n3)cc2)c1 [F43, 1-((Z)-3-(5-Methyl-2-(trifluoromethyl)phenyl)-4-oxothiazolidin-2-ylidene)-3-(4-((E)-2-(1-(4-(trifluoromethoxy)phenyl)-1H-1,2,4-triazol-3-yl)vinyl)phenyl)urea]	50 to 100%	50 to 100%	
